System: 266 human PDZ domains (PDZome)
Assay: Holdup assay (chromatographic retention, PDZome-binding profile, BI)
Parameters: key to maximal BI / Max BI / BI: binding intensity: 0.00 = no binding, 1.00 = maximal binding; Log(Kd): unit not given here
Method: The holdup method is a chromatographic approach in solution developed in our group that allows to measure the binding strength of a peptide, attached to a resin, against a library of domains of a same family. We initially proposed this method to explore the interaction between PBM peptides and the human PDZ domains. Briefly, a soluble cell lysate containing individually overexpressed PDZ domain is incubated until equilibrium with a calibrated amount of streptavidin-resin saturated either with the target biotinylated PBM peptide or with biotin as a reference. The flow-throughs containing the unbound protein fraction are recovered by filtration and loaded on a capillary electrophoresis instrument to quantify the amount of remaining free PDZ. The stronger the steady-state depletion of the PDZ domain in the flow-through as compared to the reference, the stronger the PDZ/PBM binding interaction. The assay is particularly suited to quantitatively evaluate and compare large numbers of interactions. This method delivers, for each PBM/PDZ pair, a "binding intensity" (BI), whose value can in principle range from 0.00 (no binding event detected) to 1.00 (maximal binding event). The approach has been automated and the human PDZ library was recently extended to the complete 266 PDZ domains known in human proteome. […] The high accuracy and efficiency of the holdup assay have been validated previously. Very recently, a manual version of the holdup assay with purified samples and using widespread benchtop equipment has been implemented and has proven to be reliable.
The 266 PDZ domains that constitute the PDZ library (“PDZome V.2”) used in the present work were produced using constructs with optimized boundaries as described previously. All the genes were fused to Maltose-Binding Protein (MBP) or Thioredoxin (THR) tag often used to facilitate the solubilisation of the over-expressed protein, by cloning them into the pETG41A or pETG20A plasmid, respectively. […] The expressed tag-PDZ concentrations were quantified using capillary gel electrophoresis and cell lysates were diluted to reach approximately 5 μM tag-PDZ before freezing in 96-well plates. A detailed protocol of the PDZ library production, expression and benchmarking can be found in [32]. PDZ domains are named according to their originating protein name followed by the PDZ number (e.g. NHERF1-1 as the first PDZ domain of the NHERF1 protein).
The holdup assay was performed on a Tecan freedom Evo200 robot with 384-well plates in singlicate for the three 11-mer PTEN variants and the 13-mer PTEN peptide as described in [31, 32]. Briefly, prior to interaction assay, 2.5 μL of streptavidin resin was saturated in each well with 20 μL of biotinylated PBM peptides (42 μM) and then washed twice with an excess of free biotin, while the reference resin was incubated only with biotin. Right before the holdup experiment, the PDZ library was spiked with an internal standard of lysozyme. Then, the biotin- or PBM-saturated resin was incubated, each in a distinct well of a 384-well plate, with complete cell lysates diluted so that the concentration of the tag-PDZ present in the crude extract is adjusted at 4 μM. After a sufficient time to reach complex equilibrium (15 min.), a fast and mild filtration step is performed and the tag-PDZ concentrations were measured by capillary electrophoresis instrument (LabChip GXII, PerkinElmer, Massachusets, USA). Standard markers were used to convert migration time into molecular weight on the LabChip software and inappropriate molecular weight markers were corrected or excluded.
Holdup data quality check and processing […]

[1] = PDZ domain PARD3-1, first of two lines so named (r186)

SMILES: CC[C@H](C)[C@H](NC(=O)[C@H](CCC(N)=O)NC(=O)[C@@H](NC(=O)[C@H](Cc1c[nH]cn1)NC(=O)[C@H](CCC(N)=O)NC(=O)[C@H](CC(=O)O)NC(=O)[C@H](CCC(=O)O)NC(=O)[C@H](CC(=O)O)NC(=O)CCC(=O)NCCCOCCOCCOCCCNC(=O)CCCC[C@@H]1SC[C@@H]2NC(=O)N[C@@H]21)[C@@H](C)O)C(=O)N[C@H](C(=O)N[C@@H](CCCCN)C(=O)N[C@H](C(=O)O)C(C)C)[C@@H](C)O [PTEN_11]
- BI (PDZ domain MPDZ-2): -0.043
- BI (PDZ domain MPDZ-3): 0.079
- BI (PDZ domain MPDZ-4): -0.037
- BI (PDZ domain MPDZ-5): 0.085
- BI (PDZ domain MPDZ-6): -0.029
- BI (PDZ domain MPDZ-7): 0.154
- BI (PDZ domain MPDZ-8): 0.119
- BI (PDZ domain MPDZ-9 (gene NHERF2, 2)): -0.075
- BI (PDZ domain MPP1-1): -0.033
- BI (PDZ domain MPP2-1): -0.076
- BI (PDZ domain MPP3-1): 0.035
- BI (PDZ domain MPP4-1): 0.041
- BI (PDZ domain MPP5-1): -0.091
- BI (PDZ domain MPP6-1): -0.062
- BI (PDZ domain MPP7-1): 0.034
- BI (PDZ domain NHERF1-2): 0.094
- BI (PDZ domain NHERF3-1): 0.153
- BI (PDZ domain NHERF3-2): 0.063
- BI (PDZ domain NHERF3-3): 0.131
- BI (PDZ domain NHERF3-4): -0.013
- BI (PDZ domain NHERF4-1): -0.04
- BI (PDZ domain NHERF4-2): -0.071
- BI (PDZ domain NHERF4-3): 0.06
- BI (PDZ domain NHERF4-4): -0.01
- BI (PDZ domain NOS1-1): 0.016
- BI [1]: 0.172
- Log(Kd) [1]: 3.7949
- BI (PDZ domain PARD3-1, second of two lines so named (r187)): 0.048
- BI (PDZ domain PARD3B-1): -0.032
- BI (PDZ domain PARD3B-2): 0.045
- BI (PDZ domain PARD3B-3): -0.026
- BI (PDZ domain PARD6G-1): -0.088
- BI (PDZ domain PDLIM2-1): -0.001
- BI (PDZ domain PDLIM3-1): -0.059
- BI (PDZ domain PDLIM4-1): -0.02
- BI (PDZ domain PDLIM5-1): 0.07
- BI (PDZ domain PDLIM7-1): 0.032
- BI (PDZ domain PDZD2-1): -0.006
- BI (PDZ domain PDZD2-3): -0.072
- BI (PDZ domain PDZD2-4): -0.02
- BI (PDZ domain PDZD2-5): 0.028
- BI (PDZ domain PDZD2-6): 0.115
- BI (PDZ domain PDZD4-1): 0.019
- BI (PDZ domain PDZD7-1): -0.032
- BI (PDZ domain PDZD7-2): 0.087
- BI (PDZ domain PDZD7-3): 0.658
- BI (PDZ domain PDZD8-1): -0.04
- BI (PDZ domain PDZD11-1): -0.013
- BI (PDZ domain PDZRN4-1): 0
- BI (PDZ domain PDZRN4-2): 0.005
- BI (PDZ domain PREX1-1): 0.099
- BI (PDZ domain PREX2-2): -0.021
- BI (PDZ domain PRX-1): -0.1
- BI (PDZ domain PSCDBP-1): -0.154
- BI (PDZ domain PSMD9-1): -0.01
- BI (PDZ domain PTPN3-1): 0.075
- BI (PDZ domain PTPN4-1): 0.017
- BI (PDZ domain PTPN13-1): 0.143
- BI (PDZ domain PTPN13-5): -0.041
- BI (PDZ domain RAPGEF2-1): -0.045
- BI (PDZ domain RHPN2-1): -0.079
- BI (PDZ domain SCRIB-1): 0.062
- BI (PDZ domain SCRIB-2): -0.183
- BI (PDZ domain SCRIB-4): 0.061
- BI (PDZ domain SHANK1-1): 0.251
- BI (PDZ domain SHANK2-1): 0.071
- BI (PDZ domain SHANK3-1): 0.106
- BI (PDZ domain SHROOM2-1): 0.022
- BI (PDZ domain SHROOM4-1): -0.001
- BI (PDZ domain SIPA1L2-1): 0.019
- BI (PDZ domain SNTA1-1): 0.18
- BI (PDZ domain SNTB1-1): 0.156
- BI (PDZ domain SNTG1-1): 0.078
- BI (PDZ domain SNTG2-1): 0.056
- BI (PDZ domain STXB4-1): -0.026
- BI (PDZ domain SYNJ2BP-1): 0.089
- BI (PDZ domain SYNP2-1): -0.045
- BI (PDZ domain SYNPO2L-1): -0.053
- BI (PDZ domain TIAM1-1): 0.032
- BI (PDZ domain TIAM2-1): 0.033
- BI (PDZ domain TJP1-1): 0.119
- BI (PDZ domain TJP1-2): -0.039
- BI (PDZ domain TJP2-3): 0.064
- BI (PDZ domain TJP3-1): 0.015
- BI (PDZ domain TJP3-2): 0.017
- BI (PDZ domain TX1B3-1): -0.022
- BI (PDZ domain USH1C-1): -0.104
- number of PDZ domains identified as potential binders (BI>0.20) (holdup, singlicate, threshold BI>0.20): 19 PDZ domains
- maximal BI (holdup, singlicate, highest BI in the PDZome profile, BI standard error ~0.07): 0.71
- binding of several PDZ domains (in words) (including several ones from MAGI and NHERF): detectably bound
- Max BI (maximum over PDZome): 0.71

— article PMC7774954, “Interactomic affinity profiling by holdup assay: Acetylation and distal residues impact the PDZome-binding specificity of PTEN phosphatase” (PLoS ONE, 2020)
